Measurements: ChEMBL document CHEMBL1137380, “Conformationally restricted dipeptide amides as potent and selective neuronal nitric oxide synthase inhibitors” (J Med Chem, 2006)

Assays:
[1] = biological target: T1, Nitric oxide synthase, inducible (Mus musculus, UniProt P29477); assay: Inhibition of murine macrophage iNOS
T1 sequence (P29477 whole entry): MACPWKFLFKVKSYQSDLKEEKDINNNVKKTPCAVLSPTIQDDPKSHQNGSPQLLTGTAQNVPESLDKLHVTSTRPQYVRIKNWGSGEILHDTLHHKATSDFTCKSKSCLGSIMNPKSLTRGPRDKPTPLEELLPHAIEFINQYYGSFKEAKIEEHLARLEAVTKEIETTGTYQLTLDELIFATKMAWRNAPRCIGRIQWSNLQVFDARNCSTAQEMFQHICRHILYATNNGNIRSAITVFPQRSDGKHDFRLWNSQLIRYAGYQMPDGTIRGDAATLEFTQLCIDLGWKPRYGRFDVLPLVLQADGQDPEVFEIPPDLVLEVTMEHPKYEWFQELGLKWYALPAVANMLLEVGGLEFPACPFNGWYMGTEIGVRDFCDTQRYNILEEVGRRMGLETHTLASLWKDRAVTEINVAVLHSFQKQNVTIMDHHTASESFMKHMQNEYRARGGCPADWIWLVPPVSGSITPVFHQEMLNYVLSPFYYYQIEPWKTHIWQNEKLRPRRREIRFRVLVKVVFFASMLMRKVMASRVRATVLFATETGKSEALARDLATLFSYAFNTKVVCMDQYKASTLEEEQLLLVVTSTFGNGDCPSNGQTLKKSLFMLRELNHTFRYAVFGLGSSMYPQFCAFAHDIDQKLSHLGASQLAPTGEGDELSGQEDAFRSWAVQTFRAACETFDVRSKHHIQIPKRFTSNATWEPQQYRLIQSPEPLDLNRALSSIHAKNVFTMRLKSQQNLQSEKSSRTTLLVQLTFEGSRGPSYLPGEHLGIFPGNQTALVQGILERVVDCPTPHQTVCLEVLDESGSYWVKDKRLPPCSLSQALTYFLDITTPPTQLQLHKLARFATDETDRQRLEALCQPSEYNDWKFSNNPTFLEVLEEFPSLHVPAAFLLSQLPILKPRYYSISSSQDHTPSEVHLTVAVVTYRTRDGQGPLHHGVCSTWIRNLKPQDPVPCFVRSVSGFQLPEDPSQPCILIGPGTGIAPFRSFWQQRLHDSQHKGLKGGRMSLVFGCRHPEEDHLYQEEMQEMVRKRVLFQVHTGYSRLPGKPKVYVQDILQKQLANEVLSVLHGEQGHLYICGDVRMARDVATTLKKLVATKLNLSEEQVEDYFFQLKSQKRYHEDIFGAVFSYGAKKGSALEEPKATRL

Nitric oxide synthase 1 = Nitric oxide synthase 1 (Rattus norvegicus, UniProt P29476); assay: Inhibition of rat nNOS
Chain of Nitric oxide synthase 1 (P29476 whole entry): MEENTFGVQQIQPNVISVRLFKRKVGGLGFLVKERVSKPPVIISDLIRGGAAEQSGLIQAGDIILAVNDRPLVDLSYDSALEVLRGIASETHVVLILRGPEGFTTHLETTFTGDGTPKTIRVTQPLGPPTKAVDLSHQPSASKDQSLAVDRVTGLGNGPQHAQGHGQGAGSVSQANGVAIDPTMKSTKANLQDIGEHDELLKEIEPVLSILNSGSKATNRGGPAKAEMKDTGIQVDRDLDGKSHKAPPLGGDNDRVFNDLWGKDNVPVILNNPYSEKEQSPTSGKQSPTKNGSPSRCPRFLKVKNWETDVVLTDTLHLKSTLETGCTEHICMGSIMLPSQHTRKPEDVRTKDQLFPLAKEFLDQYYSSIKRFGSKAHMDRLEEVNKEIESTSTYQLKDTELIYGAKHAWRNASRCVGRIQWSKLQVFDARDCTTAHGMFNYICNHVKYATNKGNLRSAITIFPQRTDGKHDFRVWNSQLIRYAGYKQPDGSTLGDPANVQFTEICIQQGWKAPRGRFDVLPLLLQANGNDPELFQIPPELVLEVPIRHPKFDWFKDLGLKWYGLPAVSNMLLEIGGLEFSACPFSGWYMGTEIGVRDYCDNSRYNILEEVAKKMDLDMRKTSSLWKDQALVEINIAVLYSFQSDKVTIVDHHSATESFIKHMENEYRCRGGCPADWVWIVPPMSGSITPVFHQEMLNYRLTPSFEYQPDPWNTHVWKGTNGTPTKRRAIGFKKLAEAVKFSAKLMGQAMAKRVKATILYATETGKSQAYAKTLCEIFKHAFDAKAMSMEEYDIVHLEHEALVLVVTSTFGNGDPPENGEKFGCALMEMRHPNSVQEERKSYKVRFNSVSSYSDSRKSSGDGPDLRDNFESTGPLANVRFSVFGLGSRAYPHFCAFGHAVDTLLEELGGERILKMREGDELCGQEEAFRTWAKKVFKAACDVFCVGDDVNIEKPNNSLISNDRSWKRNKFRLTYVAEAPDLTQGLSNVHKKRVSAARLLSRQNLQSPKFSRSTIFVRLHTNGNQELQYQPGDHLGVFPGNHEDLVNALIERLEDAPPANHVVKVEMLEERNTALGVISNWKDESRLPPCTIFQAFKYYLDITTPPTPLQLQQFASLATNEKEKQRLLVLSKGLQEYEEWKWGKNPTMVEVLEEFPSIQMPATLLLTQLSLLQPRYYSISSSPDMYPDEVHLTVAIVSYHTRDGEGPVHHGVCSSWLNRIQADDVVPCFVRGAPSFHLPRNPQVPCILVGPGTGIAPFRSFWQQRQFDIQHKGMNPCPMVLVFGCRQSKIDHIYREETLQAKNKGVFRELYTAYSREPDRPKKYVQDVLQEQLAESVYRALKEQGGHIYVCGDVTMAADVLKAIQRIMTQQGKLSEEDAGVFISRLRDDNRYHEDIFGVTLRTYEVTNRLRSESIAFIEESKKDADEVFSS

Nitric oxide synthase 3 = biological target: T2, Nitric oxide synthase 3 (Bos taurus, UniProt P29473); assay: Inhibition of bovine eNOS
T2 sequence (P29473 whole entry): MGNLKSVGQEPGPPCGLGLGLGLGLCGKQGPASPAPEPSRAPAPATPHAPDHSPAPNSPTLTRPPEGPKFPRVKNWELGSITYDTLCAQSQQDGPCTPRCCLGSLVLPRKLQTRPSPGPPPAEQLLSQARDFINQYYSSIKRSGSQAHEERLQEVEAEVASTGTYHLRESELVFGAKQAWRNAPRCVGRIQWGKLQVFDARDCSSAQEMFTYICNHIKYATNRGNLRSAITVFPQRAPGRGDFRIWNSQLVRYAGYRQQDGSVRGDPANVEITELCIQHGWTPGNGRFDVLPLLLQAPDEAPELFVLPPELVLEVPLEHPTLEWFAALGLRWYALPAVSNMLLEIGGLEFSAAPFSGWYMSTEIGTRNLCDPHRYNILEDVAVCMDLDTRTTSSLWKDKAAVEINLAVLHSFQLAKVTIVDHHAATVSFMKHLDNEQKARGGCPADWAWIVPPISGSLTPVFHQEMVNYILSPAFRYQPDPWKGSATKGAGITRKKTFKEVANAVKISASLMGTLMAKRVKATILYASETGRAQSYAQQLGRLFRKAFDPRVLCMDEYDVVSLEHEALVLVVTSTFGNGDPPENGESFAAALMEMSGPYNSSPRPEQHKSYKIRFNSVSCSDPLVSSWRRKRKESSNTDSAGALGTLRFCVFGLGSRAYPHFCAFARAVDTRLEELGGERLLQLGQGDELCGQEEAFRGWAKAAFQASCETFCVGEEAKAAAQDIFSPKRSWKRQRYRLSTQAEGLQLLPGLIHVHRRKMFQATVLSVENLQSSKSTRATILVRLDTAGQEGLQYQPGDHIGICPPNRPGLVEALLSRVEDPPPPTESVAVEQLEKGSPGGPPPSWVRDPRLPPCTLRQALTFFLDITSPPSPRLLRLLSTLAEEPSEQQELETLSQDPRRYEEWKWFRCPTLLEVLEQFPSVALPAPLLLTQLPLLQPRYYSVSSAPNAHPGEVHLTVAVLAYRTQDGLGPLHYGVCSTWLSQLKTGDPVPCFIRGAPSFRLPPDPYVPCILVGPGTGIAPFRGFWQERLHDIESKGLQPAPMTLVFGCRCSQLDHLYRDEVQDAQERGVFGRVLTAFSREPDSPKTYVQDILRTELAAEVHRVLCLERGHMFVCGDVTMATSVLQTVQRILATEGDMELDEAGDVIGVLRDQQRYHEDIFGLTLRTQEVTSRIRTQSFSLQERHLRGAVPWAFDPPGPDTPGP

[2] = Selectivity for rat nNOS over murine iNOS
[3] = Selectivity for rat nNOS over bovine eNOS

SMILES: CN1C[C@H](NC(=O)[C@@H](N)CCC/N=C(\N)N[N+](=O)[O-])C[C@H]1C(N)=O
- IC50 [1]: 83.5 µM
- Ki [1]: 37.9 µM
- IC50 (Nitric oxide synthase 1): 73.5 µM
- Ki (Nitric oxide synthase 1): 8.46 µM
- IC50 (Nitric oxide synthase 3): 1690 µM
- Ki (Nitric oxide synthase 3): 246 µM
- Ratio Ki [2]: 4.5
- Ratio Ki [3]: 29

SMILES: NC(=O)[C@@H]1C[C@@H](NC(=O)[C@@H](N)CCC/N=C(\N)N[N+](=O)[O-])CN1Cc1ccccc1
- IC50 [1]: 87.5 µM
- Ki [1]: 39.7 µM
- IC50 (Nitric oxide synthase 1): 2.85 µM
- Ki (Nitric oxide synthase 1): 0.328 µM
- IC50 (Nitric oxide synthase 3): 1100 µM
- Ki (Nitric oxide synthase 3): 159 µM
- Ratio Ki [2]: 121
- Ratio Ki [3]: 485

SMILES: NC(=O)[C@H]1NCC[C@@H]1NC(=O)[C@@H](N)CCC/N=C(\N)N[N+](=O)[O-]
- IC50 [1]: 12.7 µM
- Ki [1]: 5.76 µM
- IC50 (Nitric oxide synthase 3): 1380 µM
- Ki (Nitric oxide synthase 3): 200 µM
